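Results reflect a 48-hour exposure of cells in 96-well plates to compound at five concentrations. GI50: concentration for 50% inhibition of growth.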 Active and inactive are the calls of the source. Cut-off read from the data, not from the text of the source: active = GI50 up to about 1.1 µM and inactive = higher.
Columns and labels:
Experiment in all cases: NCI tumour cell line growth inhibition, 48 h
CCRF-CEM = system: CCRF-CEM
COLO 205 = system: COLO 205
DU-145 = system: DU-145
HOP-92 = system: HOP-92
HT-29 = system: HT-29
K562 = system: K562
KM12 = system: KM12
MDA-MB-435 = system: MDA-MB-435
MDA-N = system: MDA-N
NCI/ADR-RES = system: NCI/ADR-RES
OVCAR-5 = system: OVCAR-5
PC-3 = system: PC-3
SF-539 = system: SF-539
SK-MEL-5 = system: SK-MEL-5
SNB-19 = system: SNB-19
SW-620 = system: SW-620
T47D = system: T47D
U-251 = system: U-251

SMILES | GI50 (CCRF-CEM) | GI50 (COLO 205) | GI50 (DU-145) | GI50 (HOP-92) | GI50 (HT-29) | GI50 (K562) | GI50 (KM12) | GI50 (MDA-MB-435) | GI50 (MDA-N) | GI50 (NCI/ADR-RES) | GI50 (OVCAR-5) | GI50 (PC-3) | GI50 (SF-539) | GI50 (SK-MEL-5) | GI50 (SNB-19) | GI50 (SW-620) | GI50 (T47D) | GI50 (U-251)
CCOC(=O)C(NCc1ccc2c(c1)OCO2)(NC(=O)c1ccccc1)C(F)(F)F (stereo not given) | 19.5 µM (inactive) | > 100 µM (inactive) | > 100 µM (inactive) | 41.9 µM (inactive) | > 100 µM (inactive) | 44.4 µM (inactive) | 88.1 µM (inactive) | > 100 µM (inactive) | > 100 µM (inactive) | 46.2 µM (inactive) | > 100 µM (inactive) | 65 µM (inactive) | > 100 µM (inactive) | > 100 µM (inactive) | > 100 µM (inactive) | > 100 µM (inactive) | 38.3 µM (inactive) | > 100 µM (inactive)
COc1cc(O)c2c(c1)C(O)C(O)CC1OC1C(=O)/C=C/CC(C)OC2=O (stereo not given) | 1.26 µM (inactive) | 0.0877 µM (active) | 15.7 µM (inactive) | 0.354 µM (active) | 0.0794 µM (active) | 1.7 µM (inactive) | 10.4 µM (inactive) | 0.838 µM (active) | 0.454 µM (active) | 3.68 µM (inactive) | 12.2 µM (inactive) | 11.6 µM (inactive) | 3.99 µM (inactive) | 1.64 µM (inactive) | 19.8 µM (inactive) | 0.412 µM (active) | 5.05 µM (inactive) | 8.18 µM (inactive)
O=C(c1ccco1)n1c2ccc(Br)cc2c2nc3ccccc3nc21 | 40.8 µM (inactive) | > 100 µM (inactive) | 40.6 µM (inactive) | 30.5 µM (inactive) | 81.5 µM (inactive) | 38.4 µM (inactive) | 26.8 µM (inactive) | > 100 µM (inactive) | > 100 µM (inactive) | 35.6 µM (inactive) | > 100 µM (inactive) | 50.4 µM (inactive) | > 100 µM (inactive) | > 100 µM (inactive) | 23.2 µM (inactive) | 42.6 µM (inactive) | > 100 µM (inactive) | 40.8 µM (inactive)
O=C1CSC(c2c[nH]c3ccccc23)N1c1ccc(Cl)cc1Cl (stereo not given) | > 100 µM (inactive) | > 100 µM (inactive) | > 100 µM (inactive) | > 100 µM (inactive) | > 100 µM (inactive) | > 100 µM (inactive) | > 100 µM (inactive) | > 10 µM (inactive) | > 100 µM (inactive) | > 100 µM (inactive) | > 100 µM (inactive) | > 100 µM (inactive) | > 100 µM (inactive) | > 100 µM (inactive) | > 100 µM (inactive) | > 100 µM (inactive) | > 100 µM (inactive) | > 100 µM (inactive)
COc1cc(/C=C2\C(=O)N(c3cccc(NC(C)=O)c3)C(c3ccccc3)S2(=O)=O)cc(OC)c1OC (stereo not given) | 30.3 µM (inactive) | 63.1 µM (inactive) | > 100 µM (inactive) | > 100 µM (inactive) | 55.2 µM (inactive) | 31.3 µM (inactive) | 49.8 µM (inactive) | 47.9 µM (inactive) | 40.4 µM (inactive) | 94.6 µM (inactive) | > 100 µM (inactive) | 42.6 µM (inactive) | 48.3 µM (inactive) | 39.1 µM (inactive) | > 100 µM (inactive) | 56.2 µM (inactive) | 34.7 µM (inactive) | 59.8 µM (inactive)
O=C(c1cccs1)N(C(=O)N1CCN(c2ccccc2)CC1)S(=O)(=O)c1ccccc1 | 20.8 µM (inactive) | 16.4 µM (inactive) | 16.5 µM (inactive) | 22.9 µM (inactive) | 30.5 µM (inactive) | 25.1 µM (inactive) | 31.4 µM (inactive) | 25.2 µM (inactive) | 19.3 µM (inactive) | 24 µM (inactive) | 22.7 µM (inactive) | 29 µM (inactive) | 17.9 µM (inactive) | 17 µM (inactive) | 27 µM (inactive) | 31.5 µM (inactive) | 12.7 µM (inactive) | 17.5 µM (inactive)
CC(C)(C)OC(=O)NCCC1SC2C=CC1C2 (stereo not given) | > 100 µM (inactive) | > 100 µM (inactive) | > 100 µM (inactive) | > 100 µM (inactive) | > 100 µM (inactive) | > 100 µM (inactive) | > 100 µM (inactive) | > 100 µM (inactive) | > 100 µM (inactive) | > 100 µM (inactive) | > 100 µM (inactive) | > 100 µM (inactive) | > 100 µM (inactive) | 83.2 µM (inactive) | > 100 µM (inactive) | > 100 µM (inactive) | 99.3 µM (inactive) | > 100 µM (inactive)
COc1ccc2c(-c3ccc(OCCN(C)C)cc3)c(Oc3ccc(Cl)cc3)c(=O)oc2c1 | 4.42 µM (inactive) | 2.23 µM (inactive) | 13.7 µM (inactive) | 5.5 µM (inactive) | 6.56 µM (inactive) | 2.54 µM (inactive) | 3.66 µM (inactive) | 2.85 µM (inactive) | 2.06 µM (inactive) | 9.16 µM (inactive) | 15.6 µM (inactive) | 4.98 µM (inactive) | 3.74 µM (inactive) | 1.64 µM (inactive) | 8.02 µM (inactive) | 5.41 µM (inactive) | > 20.4 µM (inactive) | 3.4 µM (inactive)
CON(C)C(=O)C1CCCO1 (stereo not given) | > 100 µM (inactive) | > 100 µM (inactive) | > 100 µM (inactive) | > 100 µM (inactive) | > 100 µM (inactive) | > 100 µM (inactive) | > 100 µM (inactive) | > 100 µM (inactive) | > 100 µM (inactive) | > 100 µM (inactive) | > 100 µM (inactive) | > 100 µM (inactive) | > 100 µM (inactive) | 67 µM (inactive) | > 100 µM (inactive) | > 100 µM (inactive) | > 100 µM (inactive) | > 100 µM (inactive)
O=[N+]([O-])c1ccccc1S(=O)(=O)c1cc(O)cc2c1NCCC2 | 2.15 µM (inactive) | 17.1 µM (inactive) | 20.7 µM (inactive) | 0.612 µM (active) | 13.3 µM (inactive) | 2.68 µM (inactive) | 18.7 µM (inactive) | 18.8 µM (inactive) | 17.8 µM (inactive) | 21.4 µM (inactive) | 23 µM (inactive) | 14.7 µM (inactive) | 19.1 µM (inactive) | 13.9 µM (inactive) | 28.5 µM (inactive) | 8.41 µM (inactive) | 6.35 µM (inactive) | 20.2 µM (inactive)
CCCC#CCOC(=O)c1cc([N+](=O)[O-])cc([N+](=O)[O-])c1 | > 100 µM (inactive) | > 100 µM (inactive) | > 100 µM (inactive) | > 100 µM (inactive) | > 100 µM (inactive) | > 100 µM (inactive) | > 100 µM (inactive) | 41.4 µM (inactive) | 47.3 µM (inactive) | > 100 µM (inactive) | > 100 µM (inactive) | > 100 µM (inactive) | > 100 µM (inactive) | 52 µM (inactive) | > 100 µM (inactive) | > 100 µM (inactive) | > 100 µM (inactive) | > 100 µM (inactive)
CCNC(=S)N/N=C(/C)c1cccc(/C(C)=N\NC(=S)NCC)n1 | 0.303 µM (active) | 1.08 µM (active) | 1.35 µM (inactive) | 1.69 µM (inactive) | 0.315 µM (active) | 1.13 µM (inactive) | 0.593 µM (active) | 2.82 µM (inactive) | 1.23 µM (inactive) | 0.748 µM (active) | 0.873 µM (active) | 0.614 µM (active) | 1.27 µM (inactive) | 0.774 µM (active) | 5.48 µM (inactive) | 0.486 µM (active) | 2.72 µM (inactive) | 0.553 µM (active)
CC(=O)Nc1ccc2c3c(cc(O)c2c1)N(C(=O)CCCCC(=O)Nc1ccc2c4c(cc(O)c2c1)N(C(=O)OC(C)(C)C)CC4CCl)CC3CCl (stereo not given) | 0.193 µM (active) | 1.82 µM (inactive) | 0.826 µM (active) | 2.7 µM (inactive) | 2.82 µM (inactive) | 2.62 µM (inactive) | 2.79 µM (inactive) | 1.78 µM (inactive) | 1.77 µM (inactive) | 21.7 µM (inactive) | 3.29 µM (inactive) | 3.25 µM (inactive) | 2.25 µM (inactive) | 1.54 µM (inactive) | 2.09 µM (inactive) | 2.82 µM (inactive) | 0.82 µM (active) | 1.53 µM (inactive)
COC(Cc1ccccc1)NC(C)=O (stereo not given) | > 100 µM (inactive) | > 100 µM (inactive) | > 100 µM (inactive) | > 100 µM (inactive) | > 100 µM (inactive) | > 100 µM (inactive) | > 100 µM (inactive) | > 100 µM (inactive) | > 100 µM (inactive) | > 100 µM (inactive) | > 100 µM (inactive) | > 100 µM (inactive) | > 100 µM (inactive) | > 100 µM (inactive) | > 100 µM (inactive) | > 100 µM (inactive) | > 100 µM (inactive) | > 100 µM (inactive)
N#C[BH2-][n+]1cn(C2CC(O)C(COP(=O)(O)OC3CC(n4c[n+]([BH2-]C#N)c5c(=O)[nH]c(N)nc54)OC3CO)O2)c2nc(N)[nH]c(=O)c21 (stereo not given) | > 100 µM (inactive) | > 100 µM (inactive) | > 100 µM (inactive) | > 100 µM (inactive) | > 100 µM (inactive) | 10 µM (inactive) | > 100 µM (inactive) | > 100 µM (inactive) | > 100 µM (inactive) | > 100 µM (inactive) | > 100 µM (inactive) | > 100 µM (inactive) | > 100 µM (inactive) | > 100 µM (inactive) | > 100 µM (inactive) | > 100 µM (inactive) | > 100 µM (inactive) | > 100 µM (inactive)
